This note sets out measurements from patent US10851108B2, “Substituted bicyclic heterocyclic compounds” (BRISTOL-MYERS SQUIBB COMPANY, priority 2016, dated 2020).

One may read the pIC50 as −log10 of the IC50, conventionally taken in molar units.

pIC50: −log10 of the molar value.

The target in the assay is hROMK (human Kir1.1) (Homo sapiens (Human), UniProt P48048). Description: Thallium Flux Assay. To be noted: CHO T-Rex hROMK stable cell line, 10-point concentration response; read-out: hROMK Th+ Flux IC50. In kind it is cell-based. As for the experimental part: Solutions and reagents: Thallium flux assay was performed using FluxOR kit (F10017, Life Technologies). Loading buffer, assay buffer and stimulus buffer were prepared using kit components. HBSS (Hank's balanced salt solution, Cat #14025-092) was purchased separately from Life Technologies.
Sequence of hROMK (human Kir1.1) (P48048 whole entry): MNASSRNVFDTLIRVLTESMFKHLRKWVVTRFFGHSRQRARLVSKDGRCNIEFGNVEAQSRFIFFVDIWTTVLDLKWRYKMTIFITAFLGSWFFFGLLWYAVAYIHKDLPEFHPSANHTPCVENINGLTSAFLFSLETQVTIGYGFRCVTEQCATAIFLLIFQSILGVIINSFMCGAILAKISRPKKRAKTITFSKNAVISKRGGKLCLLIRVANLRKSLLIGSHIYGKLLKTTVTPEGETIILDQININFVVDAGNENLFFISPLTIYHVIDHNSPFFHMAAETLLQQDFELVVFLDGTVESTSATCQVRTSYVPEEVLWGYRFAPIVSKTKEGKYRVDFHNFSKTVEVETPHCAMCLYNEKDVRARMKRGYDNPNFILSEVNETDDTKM
To prepare 10 ml of loading buffer: 10 μl of FluxOR dye (reconstituted in DMSO) was first added to 100 μl of powerload concentrate and this mix along with 100 μl of Probenicid (100×) was then added to 9.79 ml of HBSS. Assay buffer (10 ml) was prepared by addition of 2 ml of FluxOR chloride free buffer (5×), 100 μl of Probenicid (100×), and 0.2 ml of Ouabain (13.77 mM) to 7.7 ml of deionized water. Stimulus buffer was composed of 15 mM Tl2SO4, 0.75 mM K2SO4 in FluxOR chloride free buffer (diluted to 1× using deionized water). The final concentration of Tl2SO4 and K2SO4 in the assay plate was 3 mM and 0.15 mM, respectively.
Plating and induction of cells: The CHO T-Rex hROMK (human Kir1.1) stable cell line was maintained in Ham's F12 media supplemented with 10% FBS, 1% Penicillin-Streptomycin, 500 μg/ml Zeocin and 10 μg/ml Blasticidin at 37° C. in a 5% CO2 incubator. One day before the experiment, the cells were dissociated by incubation with Versene solution (15040-066, Life Technologies) for 10 minutes at 37° C. followed by addition of growth media. The cell suspension was centrifuged at 1200 rpm for 5 min. After discarding the supernatant, the cells were resuspended in fresh growth media and cell concentration was determined using a hemocytometer. Next, 0.5 μg/ml of Doxycycline was added to the cell suspension to induce hROMK channel expression and 50 μl (10,000 cells/well) of cell suspension was added to each well of a poly-D lysine coated 384 well black, optically clear bottom plate (6007718, Perkin Elmer). The assay plate was kept at 37° C. in a 5% CO2 incubator.
Assay protocol: On the day of experiment, media was removed and loading buffer was added (30 μl/well) to the assay plate. The cells were incubated in the loading buffer for 30 minutes at 37° C. The loading buffer was then replaced by assay buffer (30 μl/well) followed by addition of test compounds or controls. The cells were incubated with compounds for 30 minutes and the plate was then mounted on FlexStation (Molecular Devices) for fluorescence read out with excitation and emission wavelengths at 488 and 525 nm, respectively. Each well was read for 90 sec at 2 sec interval and the stimulus buffer was added after 20 seconds of baseline recording. The final DMSO concentration was either 0.5 or 1% in the assay plate. […] controls were defined by addition of DMSO or 3 μM of a standard ROMK inhibitor, respectively, to the wells instead of a test compound.
A 10-point concentration response curve was used to estimate the IC50 value of test compounds.
The data in Table 3 is reported with two significant figures.
For `Cc1c(C(O)CN2CCc3nc(-n4ccc5c(C#N)cccc54)ncc3C2)ccc2c1COC2=O` (single isomer, unassigned) [Example 1-II, 1-(6-(2-hydroxy-2-(4-methyl-1-oxo-1,3-dihydroisobenzofuran-5-yl)ethyl)-5,6,7,8-tetrahydropyrido[4,3-d]pyrimidin-2-yl)-1H-indole-4-carbonitrile], the pIC50 is 6.34.

With `Cc1c(C(O)CN2CCc3nc(-n4cnc5ccccc54)ncc3C2)ccc2c1COC2=O` (single isomer, unassigned) [Example 67-I, 5-(2-(2-(1H-benzo[d]imidazol-1-yl)-7,8-dihydropyrido[4,3-d]pyrimidin-6(5H)-yl)-1-hydroxyethyl)-4-methyliso-benzofuran-1(3H)-one], the pIC50 is 6.80.

As for `Cc1c(C(CO)N2CCc3nc(Nc4ccc(C#N)c(F)c4)ncc3C2)ccc2c1COC2=O` (single isomer, unassigned) [Example 29-I, 2-fluoro-4-((6-(2-hydroxy-1-(4-methyl-1-oxo-1,3-dihydroisobenzofuran-5-yl)ethyl)-5,6,7,8-tetrahydropyrido [4,3-d]pyrimidin-2-yl)amino)benzonitrile], the pIC50 is 5.52.

As for `Cn1c(=O)oc2ccc(C(O)CN3CCc4nc(-n5ccc6c(C#N)cccc65)ncc4C3)cc21` (single isomer, unassigned) [Example 22-I, 1-(6-(2-hydroxy-2-(3-methyl-2-oxo-2,3-dihydrobenzo[d]oxazol-5-yl)ethyl)-5,6,7,8-tetrahydropyrido[4,3-d]pyrimidin-2-yl)-1H-indole-4-carbonitrile], the pIC50 is 6.00.

Regarding `Cc1c(CN2CCc3nc(Nc4ccc5oc(=O)n(C)c5c4)ncc3C2)ccc2c1COC2=O` [Example 49, 3-methyl-5-((6-((4-methyl-1-oxo-1,3-dihydroisobenzofuran-5-yl)methyl)-5,6,7,8-tetrahydropyrido[4,3-d]pyrimidin-2-yl)amino) benzo[d]oxazol-2(3H)-one], the pIC50 is 5.74.

Regarding `N#Cc1ccc(Nc2ncc3c(n2)CCN(Cc2ccc4c(c2)COC4=O)C3)cc1F` [Example 2], the pIC50 was 6.02.

Take `Cc1c(CN2CCc3nc(N(C)c4ccc(C#N)c(F)c4)ncc3C2)ccc2c1COC2=O` [Example 47, 2-fluoro-4-(methyl(6-((4-methyl-1-oxo-1,3-dihydroisobenzofuran-5-yl)methyl)-5,6,7,8-tetrahydropyrido[4,3-d]pyrimidin-2-yl)amino) benzonitrile]: the pIC50 is 5.72.

Regarding `Cc1c(C(O)CN2CCc3nc(N4CCc5c(C#N)cccc54)ncc3C2)ccc2c1COC2=O` (single isomer, unassigned) [Example 65-II, 1-(6-(2-hydroxy-2-(4-methyl-1-oxo-1,3-dihydroisobenzofuran-5-yl)ethyl)-5,6,7,8-tetrahydropyrido[4,3-d]pyrimidin-2-yl)indoline-4-carbonitrile], the negative logarithm of the IC50 (pIC50) was 6.42.

In the case of `N#Cc1ccc2c(cnn2-c2ncc3c(n2)CCN(Cc2ccc4c(c2)COC4=O)C3)c1` [Example 11, 1-(6-((1-oxo-1,3-dihydroisobenzofuran-5-yl)methyl)-5,6,7,8-tetrahydropyrido[4,3-d]pyrimidin-2-yl)-1H-indazole-5-carbonitrile], the pIC50 was 5.92.

For the molecule `N#Cc1cccc2c1ccn2-c1ncc2c(n1)CCN(CC(O)c1ccc3c(c1)COC3=O)C2` (single isomer, unassigned) [Example 18-II, 1-(6-(2-hydroxy-2-(1-oxo-1,3-dihydro-isobenzofuran-5-yl)ethyl)-5,6,7,8-tetrahydropyrido[4,3-d]pyrimidin-2-yl)-1H-indole-4-carbonitrile], the pIC50 was 6.24.

With `N#Cc1ccc(Nc2ccc3c(n2)CCN(CCc2ccc4c(c2)COC4=O)C3)cc1F` [Example 7, 2-fluoro-4-((6-(2-(1-oxo-1,3-dihydroisobenzofuran-5-yl)ethyl)-5,6,7,8-tetrahydro-1,6-naphthyridin-2-yl)amino)benzonitrile], the pIC50 is 6.70.

As for `Cc1c(C(O)CN2CCc3nc(-n4ccc5cc(C#N)ccc54)ncc3C2)ccc2c1COC2=O` (single isomer, unassigned) [Example 16-II, 1-(6-(2-hydroxy-2-(4-methyl-1-oxo-1,3-dihydroisobenzofuran-5-yl)ethyl)-5,6,7,8-tetrahydropyrido[4,3-d]pyrimidin-2-yl)-1H-indole-5-carbonitrile], the pIC50 was 6.42.

As for `Cc1c(C(O)CN2CCc3nc(-n4ncc5cc(C#N)ccc54)ncc3C2)ccc2c1COC2=O` (single isomer, unassigned) [Example 50, 1-(6-(2-hydroxy-2-(4-methyl-1-oxo-1,3-dihydroisobenzofuran-5-yl)ethyl)-5,6,7,8-tetrahydropyrido[4,3-d]pyrimidin-2-yl)-1H-indazole-5-carbonitrile], the pIC50 is 6.15.

With `Cc1c(C(O)CN2CCc3nc(-n4ncc5c(C#N)ccnc54)ncc3C2)ccc2c1COC2=O` (single isomer, unassigned) [Example 35-II, 1-(6-(2-hydroxy-2-(4-methyl-1-oxo-1,3-dihydroisobenzofuran-5-yl)ethyl)-5,6,7,8-tetrahydropyrido[4,3-d]pyrimidin-2-yl)-1H-pyrazolo[3,4-b]pyridine-4-carbonitrile], the pIC50 was 5.31.

Turning to `Cc1c(CN2CCc3nc(-n4ccc5cc(C#N)ccc54)ncc3C2)ccc2c1COC2=O` [Example 21, 1-(6-((4-methyl-1-oxo-1,3-dihydro-isobenzofuran-5-yl)methyl)-5,6,7,8-tetrahydropyrido[4,3-d]pyrimidin-2-yl)-1H-indole-5-carbonitrile], the negative logarithm of the IC50 (pIC50) is 5.49.

For `Cc1cc(Nc2ncc3c(n2)CCN(Cc2ccc4c(c2C)COC4=O)C3)ncc1C#N` [Example 31, 4-methyl-6-((6-((4-methyl-1-oxo-1,3-dihydroisobenzofuran-5-yl)methyl)-5,6,7,8-tetrahydropyrido[4,3-d]pyrimidin-2-yl)amino) nicotinonitrile], the pIC50 is 5.82.

Take `COC(=O)c1cnc2ccn(-c3ncc4c(n3)CCN(CC(O)c3ccc5c(c3C)COC5=O)C4)c2c1` (single isomer, unassigned) [Example 52-I, methyl 1-(6-(2-hydroxy-2-(4-methyl-1-oxo-1,3-dihydroisobenzofuran-5-yl)ethyl)-5,6,7,8-tetrahydropyrido[4,3-d]pyrimidin-2-yl)-1H-pyrrolo[3,2-b]pyridine-6-carboxylate]: the pIC50 was 5.91.

For `Cc1c(C(O)CN2CCc3nc(-n4ncc5c(C#N)cncc54)ncc3C2)ccc2c1COC2=O` (single isomer, unassigned) [Example 43-II, 1-(6-(2-hydroxy-2-(4-methyl-1-oxo-1,3-dihydroisobenzofuran-5-yl)ethyl)-5,6,7,8-tetrahydropyrido[4,3-d]pyrimidin-2-yl)-1H-pyrazolo[3,4-c]pyridine-4-carbonitrile], the pIC50 is 6.19.

As for `Cc1c(CN2CCc3nc(-n4ccc5c(C#N)cccc54)ncc3C2)ccc2c1COC2=O` [Example 20, 1-(6-((4-methyl-1-oxo-1,3-dihydro-isobenzofuran-5-yl)methyl)-5,6,7,8-tetrahydropyrido[4,3-d]pyrimidin-2-yl)-1H-indole-4-carbonitrile], the pIC50 is 5.82.

`Cc1c(CN2Cc3cnc(Nc4ccc(C#N)c(F)c4)nc3CC2CO)ccc2c1COC2=O` (stereo not shown) [Example 57-II, 2-fluoro-4-((7-(hydroxymethyl)-6-((4-methyl-1-oxo-1,3-dihydroisobenzo-furan-5-yl)methyl)-5,6,7,8-tetrahydro-pyrido[4,3-d]pyrimidin-2-yl)amino) benzonitrile]: the pIC50 is 6.17.

Regarding `N#Cc1ccc2c(ccn2-c2ncc3c(n2)CCN(CC(O)c2ccc4c(c2)COC4=O)C3)c1` (single isomer, unassigned) [Example 17-II, 1-(6-(2-hydroxy-2-(1-oxo-1,3-dihydro-isobenzofuran-5-yl)ethyl)-5,6,7,8-tetrahydropyrido[4,3-d]pyrimidin-2-yl)-1H-indole-5-carbonitrile], the pIC50 was 6.07.

As to `Cc1cc(Nc2ccc3c(c2)CCN(Cc2ccc4c(c2)COC4=O)C3)ncc1C#N` [Example 34, 4-methyl-6-((2-((1-oxo-1,3-dihydro-isobenzofuran-5-yl)methyl)-1,2,3,4-tetrahydroisoquinolin-6-yl)amino) nicotinonitrile], the pIC50 is 6.52.
